Experimental data reported in the NIST ThermoML archive (doi:10.1016/j.fluid.2008.12.007).
± gives the expanded uncertainty stated by the source.

Conditions: Liquid, Ebulliometric method (Recirculating still)

CCCCCC [hexane]
vapor or sublimation pressure (303.16 K): 25.04 ± 0.05 kPa | vapor or sublimation pressure (305.43 K): 27.5 ± 0.05 kPa | vapor or sublimation pressure (307.43 K): 29.95 ± 0.06 kPa | vapor or sublimation pressure (309.54 K): 32.44 ± 0.06 kPa | vapor or sublimation pressure (311.47 K): 35.07 ± 0.06 kPa | vapor or sublimation pressure (313.25 K): 37.51 ± 0.07 kPa | vapor or sublimation pressure (314.84 K): 39.98 ± 0.07 kPa | vapor or sublimation pressure (316.52 K): 42.44 ± 0.07 kPa | vapor or sublimation pressure (317.92 K): 45.02 ± 0.07 kPa | vapor or sublimation pressure (319.49 K): 47.45 ± 0.08 kPa | vapor or sublimation pressure (320.76 K): 50.01 ± 0.08 kPa | vapor or sublimation pressure (322.26 K): 52.52 ± 0.08 kPa | vapor or sublimation pressure (323.37 K): 55.03 ± 0.09 kPa | vapor or sublimation pressure (324.59 K): 57.32 ± 0.09 kPa | vapor or sublimation pressure (325.89 K): 60.07 ± 0.1 kPa | vapor or sublimation pressure (326.95 K): 62.46 ± 0.09 kPa | vapor or sublimation pressure (328.09 K): 64.77 ± 0.09 kPa | vapor or sublimation pressure (329.19 K): 67.22 ± 0.1 kPa | vapor or sublimation pressure (330.16 K): 69.64 ± 0.1 kPa | vapor or sublimation pressure (331.45 K): 72.45 ± 0.11 kPa | vapor or sublimation pressure (332.28 K): 74.82 ± 0.11 kPa | vapor or sublimation pressure (333.48 K): 77.48 ± 0.11 kPa | vapor or sublimation pressure (334.39 K): 79.84 ± 0.11 kPa | vapor or sublimation pressure (335.33 K): 82.31 ± 0.12 kPa | vapor or sublimation pressure (336.26 K): 84.88 ± 0.12 kPa | vapor or sublimation pressure (337.14 K): 87.26 ± 0.12 kPa | vapor or sublimation pressure (338.02 K): 89.85 ± 0.13 kPa | vapor or sublimation pressure (338.91 K): 92.35 ± 0.13 kPa | vapor or sublimation pressure (339.73 K): 94.85 ± 0.13 kPa | vapor or sublimation pressure (340.44 K): 97.02 ± 0.14 kPa | vapor or sublimation pressure (341.79 K): 101.32 ± 0.14 kPa

C1CCCCC1 [cyclohexane]
vapor or sublimation pressure (313.4 K): 24.95 ± 0.05 kPa | vapor or sublimation pressure (315.76 K): 27.43 ± 0.05 kPa | vapor or sublimation pressure (318.05 K): 29.95 ± 0.05 kPa | vapor or sublimation pressure (320.11 K): 32.46 ± 0.05 kPa | vapor or sublimation pressure (322.06 K): 34.9 ± 0.06 kPa | vapor or sublimation pressure (323.92 K): 37.43 ± 0.06 kPa | vapor or sublimation pressure (325.66 K): 39.94 ± 0.06 kPa | vapor or sublimation pressure (327.32 K): 42.42 ± 0.07 kPa | vapor or sublimation pressure (328.9 K): 44.91 ± 0.07 kPa | vapor or sublimation pressure (330.44 K): 47.45 ± 0.07 kPa | vapor or sublimation pressure (331.94 K): 49.92 ± 0.07 kPa | vapor or sublimation pressure (333.33 K): 52.43 ± 0.08 kPa | vapor or sublimation pressure (334.6 K): 54.76 ± 0.08 kPa | vapor or sublimation pressure (335.99 K): 57.44 ± 0.08 kPa | vapor or sublimation pressure (337.31 K): 59.98 ± 0.08 kPa | vapor or sublimation pressure (338.5 K): 62.44 ± 0.09 kPa | vapor or sublimation pressure (339.65 K): 64.86 ± 0.09 kPa | vapor or sublimation pressure (340.81 K): 67.47 ± 0.09 kPa | vapor or sublimation pressure (341.92 K): 69.94 ± 0.1 kPa | vapor or sublimation pressure (342.99 K): 72.45 ± 0.1 kPa | vapor or sublimation pressure (344.05 K): 74.96 ± 0.1 kPa | vapor or sublimation pressure (344.09 K): 75.07 ± 0.1 kPa | vapor or sublimation pressure (345.11 K): 77.54 ± 0.1 kPa | vapor or sublimation pressure (346.07 K): 79.92 ± 0.11 kPa | vapor or sublimation pressure (347.06 K): 82.52 ± 0.11 kPa | vapor or sublimation pressure (348.01 K): 85.03 ± 0.11 kPa | vapor or sublimation pressure (348.86 K): 87.27 ± 0.11 kPa | vapor or sublimation pressure (349.84 K): 89.99 ± 0.12 kPa | vapor or sublimation pressure (350.73 K): 92.48 ± 0.12 kPa | vapor or sublimation pressure (351.55 K): 94.84 ± 0.12 kPa | vapor or sublimation pressure (353.73 K): 101.33 ± 0.12 kPa

C1=CCCCC1 [cyclohexene]
vapor or sublimation pressure (315.56 K): 24.94 ± 0.05 kPa | vapor or sublimation pressure (318.01 K): 27.43 ± 0.05 kPa | vapor or sublimation pressure (320.26 K): 29.98 ± 0.05 kPa | vapor or sublimation pressure (322.34 K): 32.47 ± 0.06 kPa | vapor or sublimation pressure (324.31 K): 34.95 ± 0.06 kPa | vapor or sublimation pressure (326.23 K): 37.52 ± 0.06 kPa | vapor or sublimation pressure (327.96 K): 39.98 ± 0.07 kPa | vapor or sublimation pressure (329.61 K): 42.45 ± 0.07 kPa | vapor or sublimation pressure (331.23 K): 45.01 ± 0.07 kPa | vapor or sublimation pressure (332.73 K): 47.48 ± 0.07 kPa | vapor or sublimation pressure (334.22 K): 50.02 ± 0.08 kPa | vapor or sublimation pressure (335.62 K): 52.51 ± 0.08 kPa | vapor or sublimation pressure (336.98 K): 55.02 ± 0.08 kPa | vapor or sublimation pressure (338.27 K): 57.52 ± 0.09 kPa | vapor or sublimation pressure (339.52 K): 59.98 ± 0.09 kPa | vapor or sublimation pressure (340.73 K): 62.46 ± 0.09 kPa | vapor or sublimation pressure (341.94 K): 65.02 ± 0.1 kPa | vapor or sublimation pressure (343.07 K): 67.51 ± 0.1 kPa | vapor or sublimation pressure (344.16 K): 69.97 ± 0.1 kPa | vapor or sublimation pressure (345.27 K): 72.51 ± 0.1 kPa | vapor or sublimation pressure (346.3 K): 74.96 ± 0.11 kPa | vapor or sublimation pressure (347.33 K): 77.48 ± 0.11 kPa | vapor or sublimation pressure (348.35 K): 80.02 ± 0.11 kPa | vapor or sublimation pressure (349.31 K): 82.52 ± 0.11 kPa | vapor or sublimation pressure (350.26 K): 84.99 ± 0.12 kPa | vapor or sublimation pressure (351.18 K): 87.45 ± 0.12 kPa | vapor or sublimation pressure (352.09 K): 89.96 ± 0.12 kPa | vapor or sublimation pressure (352.97 K): 92.46 ± 0.13 kPa | vapor or sublimation pressure (353.85 K): 95.01 ± 0.13 kPa | vapor or sublimation pressure (354.71 K): 97.52 ± 0.13 kPa | vapor or sublimation pressure (355.97 K): 101.33 ± 0.13 kPa

C=CCCCC [hex-1-ene]
vapor or sublimation pressure (298.07 K): 24.93 ± 0.06 kPa | vapor or sublimation pressure (300.32 K): 27.41 ± 0.06 kPa | vapor or sublimation pressure (302.55 K): 30.08 ± 0.06 kPa | vapor or sublimation pressure (304.54 K): 32.46 ± 0.06 kPa | vapor or sublimation pressure (306.31 K): 34.84 ± 0.07 kPa | vapor or sublimation pressure (308.2 K): 37.48 ± 0.07 kPa | vapor or sublimation pressure (309.84 K): 39.96 ± 0.08 kPa | vapor or sublimation pressure (311.51 K): 42.53 ± 0.08 kPa | vapor or sublimation pressure (312.98 K): 44.96 ± 0.08 kPa | vapor or sublimation pressure (314.38 K): 47.42 ± 0.09 kPa | vapor or sublimation pressure (315.79 K): 49.92 ± 0.09 kPa | vapor or sublimation pressure (317.17 K): 52.53 ± 0.1 kPa | vapor or sublimation pressure (318.43 K): 54.98 ± 0.1 kPa | vapor or sublimation pressure (319.62 K): 57.39 ± 0.1 kPa | vapor or sublimation pressure (320.84 K): 59.94 ± 0.11 kPa | vapor or sublimation pressure (322.02 K): 62.51 ± 0.11 kPa | vapor or sublimation pressure (323.16 K): 64.97 ± 0.11 kPa | vapor or sublimation pressure (324.21 K): 67.45 ± 0.12 kPa | vapor or sublimation pressure (325.25 K): 69.88 ± 0.12 kPa | vapor or sublimation pressure (326.29 K): 72.44 ± 0.13 kPa | vapor or sublimation pressure (327.32 K): 75.04 ± 0.13 kPa | vapor or sublimation pressure (328.25 K): 77.45 ± 0.13 kPa | vapor or sublimation pressure (329.21 K): 79.98 ± 0.14 kPa | vapor or sublimation pressure (330.11 K): 82.42 ± 0.14 kPa | vapor or sublimation pressure (331.01 K): 84.93 ± 0.14 kPa | vapor or sublimation pressure (331.86 K): 87.33 ± 0.15 kPa | vapor or sublimation pressure (332.74 K): 89.92 ± 0.15 kPa | vapor or sublimation pressure (333.62 K): 92.54 ± 0.15 kPa | vapor or sublimation pressure (334.38 K): 94.82 ± 0.16 kPa | vapor or sublimation pressure (335.24 K): 97.45 ± 0.16 kPa | vapor or sublimation pressure (336.48 K): 101.3 ± 0.16 kPa
